No end group written: not given here.
System: adjuvant-induced arthritis
Settings: male Sprague-Dawley rats, by gavage during 10 days

YGSRS [peptide, tyrosine-glycine-serine-arginine-serine]
effect on body weight: without inducing weight loss

— US20110009345A1 (priority 2009, published 2011)
